{"source": "patent EP4623708A1", "about": "“SWEETENER COMPOSITION FOR POUCHED ORAL PRODUCTS” (Nicoventures Trading Limited, priority 2024, dated 2025)", "origin": "cited, not measured here", "key": {"[1]": {"details": "relative to sugar"}}, "data": [{"smiles": "COC(=O)/C=C/C(C)=C\\C=C\\C(C)=C\\C=C\\C=C(C)\\C=C\\C=C(C)\\C=C\\C(=O)O", "note": "[bixin, (2E,4E,6E,8E,10E,12E,14E,16Z,18E)-20-methoxy-4,8,13,17-tetramethyl-20-oxoicosa-2,4,6,8,10,12,14,16,18-nonaenoic acid]", "values": [{"measurement": "solubility in water", "value": "insoluble in water"}]}, {"smiles": "CC(/C=C/C=C(C)/C=C/C(=O)O)=C\\C=C\\C=C(C)\\C=C\\C=C(C)\\C=C\\C(=O)O", "note": "(stereo in doubt) [norbixin, (2E,4E,6E,8E,10E,12E,14E,16E,18E)-4,8,13,17-tetramethylicosa-2,4,6,8,10,12,14,16,18-nonaenedioic acid]", "values": [{"measurement": "solubility in water", "value": "water-soluble"}]}, {"smiles": "OC[C@H]1O[C@H](O[C@]2(CCl)O[C@H](CCl)[C@@H](O)[C@@H]2O)[C@H](O)[C@@H](O)[C@H]1Cl", "note": "[Sucralose, trichlorogalatosucrose]", "values": [{"measurement": "times sweeter than sugar", "setting": "[1]", "value": "about 600 times"}]}]}
